Like-named read-outs stand apart in the source and are kept apart here.
Legend:
[1] = test system: active Arthus reaction; assay: Active Arthus reaction in the rat; assay type: in vivo, Sprague-Dawley rats; details: for change in vivo at 35 mg/kg: oral dose 35 mg/kg
Procedure: The experimental animals used were female and male Sprague-Dawley rats with a body weight between 80 and 100 g which received subcutaneous injections into the tail-head of 0.5 ml of an emulsion of pertussis vaccine and ovalbumin in liquid paraffin. After two weeks, the rats were divided into groups each of 8 animals. 24 hours and 1 hour before induction of the Arthus reaction by injection of 0.1 ml of a 0.4% strength ovalbumin solution into the right hind paw, the particular test substance or the pure vehicle (positive control) was administered orally, sodium chloride solution was injected into the left paw. One group of unsensitized animals (negative control group) was likewise treated with ovalbumin in order to be able to rule out nonspecific reactions to the protein. The parameter used for measuring the action of the product was the percentage change in the increase in paw volume compared with that in the control group which was sensitized but untreated (positive control) 4 hours after ovalbumin challenge, when the swelling had reached its maximum.

[2] = Acute toxicity; design: species or system mice; details: mouse, in vivo, single dose, mortality within 7 days
Procedure: The LD50 values were determined by the standard method via the mortality occurring within 7 days in NMRI (Naval Medical Research Institute) mice (6 animals per dose) after a single intraperitoneal (i.p.) or intravenous (i.v.) dose.

[3] = target: leucine aminopeptidase; assay: Inhibition of leucine aminopeptidase; assay type: biochemical; details: substrate L-leucine 4-nitroanilide
Procedure: The activity of the enzyme aminopeptidase B was determined photometrically using the substrate L-lysine 2-naphthylamide at room temperature. […] In the same way, the inhibition of leucine aminopeptidase was investigated using L-leucine 4-nitroanilide as enzyme substrate. The IC50 values are compiled in Table 6.

[4] = test system: DTH reaction to sheep erythrocytes; assay: Delayed-type hypersensitivity (DTH) reaction to sheep erythrocytes; assay type: in vivo, female NMRI mice; details: single i.p. dose of 40 mg/kg; maximal stimulation by Example 34 = 100%
Procedure: Groups each comprising 5 female NMRI mice with a body weight of 18 to 20 g were formed, and each animal was given 10^6 or 10^9 sheep red blood cells intravenously. Sheep erythrocytes are regarded in immunology as a standard antigen with which it is possible to check cellular and humoral immunoreactivity, especially the functioning of the T-cell-dependent component of the immune system, the so-called T-helper cells. The test substances were administered, in intraperitoneal doses of 5 to 100 mg/kg in physiological saline, at the same time as the antigen. After 5 days, each animal was given an injection of 2×10^8 sheep erythrocytes into the footpad. 24 hours later, the swelling of the foot was measured. The foot swelling is induced by a skin reaction of the delayed type (DTH reaction) and, as is known to those skilled in the art, is a measure of the cellular immune response (J. Immunol. 101 (1968), 830-845). The test results obtained with the product of Example 34, by way of example, are compiled in Table 7 and illustrate that the compounds of the formula I--administered prophylactically--are able to increase the cellular immune response after immunization with the antigen by stimulation of the T-cell system, with the stimulant action reaching its optimum in this experiment at a dose of 25 mg/kg.

[5] = Rattus norvegicus, po, 4 h, read-out: Active Arthus reaction % change
[6] = Rattus norvegicus, po, 4 h, oral dose 50 mg/kg, 4 h after ovalbumin challenge
[7] = Rattus norvegicus, po, 4 h, 4 h after ovalbumin challenge, read-out: Active Arthus reaction % change

## CCCC1=NOC(P(=O)(O)O)C1 (stereo not drawn) [Example 47]
[1]; [5]
  change in vivo at 25 mg/kg: -35%
[2]; iv
  LD50 at 168 h: > 200 mg/kg
[3]
  Leucine aminopeptidase IC50: 35 μug/ml

## CC(C)(C)C1=NOC(P(C)(=O)O)C1 (stereo not drawn) [Example 64, 3-tert.Butyl-2-isoxazolin-5-yl(P-methyl)phosphinic acid]
[1]; [5]
  change in vivo at 20 mg/kg: -59%
[2]; iv
  LD50 at 168 h: > 200 mg/kg

## CCOP(=O)(NCC(=O)OCc1ccccc1)C1CC(c2ccccc2)=NO1 (stereo not drawn) [Example 56, N-[3-Phenyl-2-isoxazolin-5-yl(P-ethoxy)phosphonoyl]glycine benzyl ester]
[1]; Rattus norvegicus, oral dose 100 mg/kg, 4 h after ovalbumin challenge, read-out: Active Arthus reaction % change
  change in vivo at 100 mg/kg: 35%
[2]; ip
  LD50 at 168 h: > 1200 mg/kg

## O=P(O)(O)C1CC(c2cccnc2)=NO1 (stereo not drawn) [Example 88]
[1]; [6]
  change in vivo at 50 mg/kg: -50%

## O=P(O)(O)C1CC(C=Cc2ccccc2)=NO1 (stereo not drawn) [Example 52]
[1]; [6]
  change in vivo at 50 mg/kg: -15%

## CCOP(=O)(OCC)C1CC(c2ccccc2)=NO1 (stereo not drawn) [Example 1, Diethyl 3-phenyl-2-isoxazolin-5-ylphosphonate]
[3]
  Leucine aminopeptidase IC50: 65 μug/ml

## CP(=O)(NCC(=O)OCc1ccccc1)C1CC(c2ccccc2)=NO1 (stereo not drawn) [57/58, N-[3-Phenyl-2-isoxazolin-5-yl(P-methyl)phosphinoyl]glycine benzyl ester]
[1]; Rattus norvegicus, po, 4 h, oral dose 12 mg/kg, 4 h after ovalbumin challenge
  change in vivo at 12 mg/kg: 22%
[2]; iv
  LD50 at 168 h: 50 to 100 mg/kg

## O=P(O)(O)C1CC(Cc2ccccc2)=NO1 (stereo not drawn) [Example 49]
[1]; [6]
  change in vivo at 50 mg/kg: -59%
[2]; iv
  LD50 at 168 h: > 200 mg/kg

## COP(=O)(OC)C1CC(C(C)(C)O)=NO1 (stereo not drawn) [Example 90]
[1]; oral dose 50 mg/kg, 4 h after ovalbumin challenge
  Active Arthus reaction % change: -31%

## O=P(O)(O)C1CC(c2ccccn2)=NO1 (stereo not drawn) [Example 42]
[1]; [7]
  change in vivo at 35 mg/kg: -33%
[2]; iv
  LD50 at 168 h: > 200 mg/kg

## CN(C)P(=O)(C1CC(c2ccccc2)=NO1)N(C)C (stereo not drawn) [Example 59, 3-Phenyl-2-isoxazolin-5-ylphosphonic tetra methyldiamide]
[1]; [6]
  change in vivo at 50 mg/kg: -25%
[2]; iv
  LD50 at 168 h: > 200 mg/kg

## O=P(O)(O)CC1CC(c2ccccc2)=NO1 (stereo not drawn) [Example 39]
[1]; [6]
  change in vivo at 50 mg/kg: 24%
[2]; ip
  LD50 at 168 h: 600 to 1200 mg/kg
[4]
  Relative stimulation of the DTH reaction: 136%

## O=P(O)(O)CC1CC(c2ccc(Cl)cc2)=NO1 (stereo not drawn) [Example 41]
[1]; Rattus norvegicus, po, 4 h, oral dose 100 mg/kg, 4 h after ovalbumin challenge, read-out: Active Arthus reaction % change
  change in vivo at 100 mg/kg: 26%
[2]; ip
  LD50 at 168 h: 150 to 300 mg/kg

## O=P(O)(O)C1CC(c2ccc(F)cc2)=NO1 (stereo not drawn) [Example 67, 3-(4-Fluorophenyl)-2-isoxazolin-5-ylphosphonic acid]
[1]; [6]
  change in vivo at 50 mg/kg: -35%
[3]
  Leucine aminopeptidase IC50: 57 μug/ml

## O=P(O)(O)C1CC(c2ccccc2O)=NO1 (stereo not drawn) [Example 73, 3-(2-Hydroxyphenyl)-2-isoxazolin-5-ylphosphonic acid]
[1]; [7]
  change in vivo at 35 mg/kg: -44%
[2]; ip
  LD50 at 168 h: 150 to 300 mg/kg

## CP(C)(=O)C1CC(c2ccccn2)=NO1 (stereo not drawn) [Example 105]
[1]; [7]
  change in vivo at 35 mg/kg: -23%
[2]; iv
  LD50 at 168 h: > 100 mg/kg

## CCOC(=O)C1=NOC(P(C)(=O)O)C1 (stereo not drawn) [Example 101]
[1]; [5]
  change in vivo at 70 mg/kg: -32%
[2]; iv
  LD50 at 168 h: > 100 mg/kg

## Cc1ccc(C2=NOC(P(C)(=O)O)C2)cc1 (stereo not drawn) [Example 30]
[4]
  Relative stimulation of the DTH reaction: 76%

## CC(C)(C)C1=NOC(P(=O)(O)O)C1 (stereo not drawn) [Example 33, 3-tert.butyl-2-isoxazolin-5-ylphosphonic acid]
[1]; [5]
  change in vivo at 100 mg/kg: -15%
[2]; iv
  LD50 at 168 h: > 200 mg/kg

## CP(C)(=O)C1CC(c2ccccc2)=NO1 (stereo not drawn) [Example 17, 3-Phenyl-2-isoxazolin-5-yldimethylphosphine oxide]
[1]; [7]
  change in vivo at 35 mg/kg: -34%
[2]; iv
  LD50 at 168 h: > 200 mg/kg

## CP(=O)(O)C1CC(c2cccc3ccccc23)=NO1 (stereo not drawn) [Example 32]
[1]; [6]
  change in vivo at 50 mg/kg: 42%
[2]; ip
  LD50 at 168 h: 600 to 1200 mg/kg

## O=[N+]([O-])c1ccc(C2=NOC(P(=O)(O)O)C2)cc1 (stereo not drawn) [Example 69, 3-(4-Nitrophenyl)-2-isoxazolin-5-ylphosphonic acid]
[1]; [6]
  change in vivo at 50 mg/kg: -20%
[2]; iv
  LD50 at 168 h: > 100 mg/kg
[3]
  Leucine aminopeptidase IC50: 27 μug/ml
